In PMC7785020, “A unique hormonal recognition feature of the human glucagon-like peptide-2 receptor” (Cell Research, 2020):
Numbering of substitutions follows the chain as printed.

Key:
Set-up in all cases: WT (1–553); expressed in transfected cells
GLP-2R D244^ECL1A = molecular target: T1, GLP-2R D244^ECL1A (Homo sapiens, UniProt O95838, D244A); assay: radioligand competition binding, D244^ECL1A; conditions: COS-7, D244^ECL1A; [^125I]GLP-2(1–33, M10Y) 10–15 pM, 4 h, 4 °C; mean ± SEM, n ≥ 3 in duplicate
T1 sequence (O95838 1-553 D244A): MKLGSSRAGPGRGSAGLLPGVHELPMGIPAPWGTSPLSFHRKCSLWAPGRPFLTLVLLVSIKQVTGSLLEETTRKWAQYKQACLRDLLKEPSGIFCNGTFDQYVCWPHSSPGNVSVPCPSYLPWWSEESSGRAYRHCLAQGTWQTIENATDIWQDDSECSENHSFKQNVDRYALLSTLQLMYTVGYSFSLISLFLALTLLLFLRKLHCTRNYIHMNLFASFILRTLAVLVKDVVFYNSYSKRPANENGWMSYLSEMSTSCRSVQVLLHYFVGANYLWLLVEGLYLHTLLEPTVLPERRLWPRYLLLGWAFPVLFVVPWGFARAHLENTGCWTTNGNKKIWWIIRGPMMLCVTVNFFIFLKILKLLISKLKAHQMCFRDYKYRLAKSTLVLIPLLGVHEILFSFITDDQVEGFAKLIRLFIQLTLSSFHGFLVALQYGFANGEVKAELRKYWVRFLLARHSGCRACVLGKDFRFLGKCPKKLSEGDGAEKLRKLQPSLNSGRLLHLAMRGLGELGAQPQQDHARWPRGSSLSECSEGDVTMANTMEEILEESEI
Method: (§1) A stepwise oxidation reaction was performed by addition of 6 aliquots of 5 µL ChloramineT (30 µL/mL) with a 1-min interval during constant stirring. The reaction was terminated by the addition of 400 µL phase A (0.1% trifluoracetic acid) before being fractionated into 1 mL volume by reverse-phase high-performance liquid chromatography (RP-HPLC, Waters 600 SimiPrep system) on a C18 column. The iodinated protein was […] by increasing concentrations of phase B (Acetonitrile + 0.1% TFA) and tested for competitive binding ability.
(§2) One day before transfection, the COS-7 cells were seeded in 75 cm^2 culture flasks (3 million cells/flask) in DMEM, containing 3.9 g/L NaHCO3 and supplemented with 10% FBS, 1% L-glutamine, 180 units/mL penicillin and 45 µg/mL streptomycin. After an overnight culture at 37 °C, 10% CO2 and 95% air humidity, the cells were transiently transfected with different GLP-2R constructs or pcDNA3.1 vector as previously described.[52] Following 24-h incubation, the cells were transferred to Costa® microtiter plates (150,000 cells/well, PerkinElmer) to achieve a 5%–10% specific binding. […] The cells were then washed twice in binding buffer (4 °C), lysed and counted for radioactivity using a Wallac Gamma Counter (PerkinElmer).

GLP-2R W249^ECL1A = molecular target: T2, GLP-2R W249^ECL1A (Homo sapiens, UniProt O95838, W249A); assay: radioligand competition binding, W249^ECL1A; conditions: COS-7, W249^ECL1A; [^125I]GLP-2(1–33, M10Y) 10–15 pM, 4 h, 4 °C; mean ± SEM, n ≥ 3 in duplicate
T2 sequence (O95838 1-553 W249A): T1 sequence (O95838 1-553 D244A) with A244D, W249A
Method: as §1, §2

GLP-2R Y182^1.43A = molecular target: T3, GLP-2R Y182^1.43A (Homo sapiens, UniProt O95838, Y182A); assay: radioligand competition binding, Y182^1.43A; conditions: COS-7, Y182^1.43A; [^125I]GLP-2(1–33, M10Y) 10–15 pM, 4 h, 4 °C; mean ± SEM, n ≥ 3 in duplicate
T3 sequence (O95838 1-553 Y182A): T1 sequence (O95838 1-553 D244A) with Y182A, A244D
Method: as §1, §2

Row | Structure (SMILES) | % Binding of WT (GLP-2R D244^ECL1A) [%] | % Binding of WT (GLP-2R W249^ECL1A) [%] | % Binding of WT (GLP-2R Y182^1.43A) [%]
1 | CC[C@H](C)[C@H](NC(=O)[C@H](Cc1ccccc1)NC(=O)[C@H](CC(=O)O)NC(=O)[C@H](CCCNC(=N)N)NC(=O)[C@H](C)NC(=O)[C@H](C)NC(=O)[C@H](CC(C)C)NC(=O)[C@H](CC(N)=O)NC(=O)[C@H](CC(=O)O)NC(=O)[C@H](CC(C)C)NC(=O)[C@@H](NC(=O)[C@@H](NC(=O)[C@H](CC(N)=O)NC(=O)[C@H](CCSC)NC(=O)[C@H](CCC(=O)O)NC(=O)[C@H](CC(=O)O)NC(=O)[C@H](CO)NC(=O)[C@H](Cc1ccccc1)NC(=O)[C@H](CO)NC(=O)CNC(=O)[C@H](CC(=O)O)NC(=O)[C@H](C)NC(=O)[C@@H](N)Cc1c[nH]cn1)[C@@H](C)O)[C@@H](C)CC)C(=O)N[C@@H](CC(N)=O)C(=O)N[C@@H](Cc1c[nH]c2ccccc12)C(=O)N[C@@H](CC(C)C)C(=O)N[C@H](C(=O)N[C@@H](CCC(N)=O)C(=O)N[C@H](C(=O)N[C@@H](CCCCN)C(=O)N[C@H](C(=O)N[C@H](C(=O)N[C@@H](CC(=O)O)C(=O)O)[C@@H](C)O)[C@@H](C)CC)[C@@H](C)O)[C@@H](C)CC [Human GLP-2 (1–33)] | 69.1 ± 4.9 | 2.2 ± 1.2 | 3.4 ± 1.0
2 | CC[C@H](C)[C@H](NC(=O)[C@H](Cc1ccccc1)NC(=O)[C@H](CC(=O)O)NC(=O)[C@H](CCCNC(=N)N)NC(=O)[C@H](C)NC(=O)[C@H](C)NC(=O)[C@H](CC(C)C)NC(=O)[C@H](CC(N)=O)NC(=O)[C@H](CC(=O)O)NC(=O)[C@H](CC(C)C)NC(=O)[C@@H](NC(=O)[C@@H](NC(=O)[C@H](CC(N)=O)NC(=O)[C@H](CCSC)NC(=O)[C@H](CCC(=O)O)NC(=O)[C@H](CC(=O)O)NC(=O)[C@H](CO)NC(=O)[C@H](Cc1ccccc1)NC(=O)[C@H](CO)NC(=O)CNC(=O)[C@H](CC(=O)O)NC(=O)CNC(=O)[C@@H](N)Cc1c[nH]cn1)[C@@H](C)O)[C@@H](C)CC)C(=O)N[C@@H](CC(N)=O)C(=O)N[C@@H](Cc1c[nH]c2ccccc12)C(=O)N[C@@H](CC(C)C)C(=O)N[C@H](C(=O)N[C@@H](CCC(N)=O)C(=O)N[C@H](C(=O)N[C@@H](CCCCN)C(=O)N[C@H](C(=O)N[C@H](C(=O)N[C@@H](CC(=O)O)C(=O)O)[C@@H](C)O)[C@@H](C)CC)[C@@H](C)O)[C@@H](C)CC [Teduglutide] | 77.5 ± 5.7 | 2.9 ± 2.0 | 3.2 ± 1.3
